Measurements from patent publication US8859569B2, “Substituted annellated pyrimidines and use thereof” (Bayer Pharma Aktiengesellschaft, priority 2011, dated 2014).
pIC50: −log10 of the molar value.

How the values were obtained:
[1] = biological target: T1, human phosphodiesterase 5 (PDE-5) (Homo sapiens, UniProt O76074); assay: Inhibition of human phosphodiesterase 5 (PDE-5), SPA assay; assay type: biochemical; conditions: PDE-5 preparation from human platelets, [8-3H]cGMP substrate
T1 construct: PDE-5 preparations are obtained from human platelets by lysis; from tissue; host or cells: human platelets
Summary of the method: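 PDE-5 partially purified from human platelets by Mono Q chromatography, diluted so under 70% of [8-3H]cGMP (0.025 μCi) converted. Compounds at 4 μM to 0.0018 μM final, Tris-HCl pH 7.5 with MgCl2, 60 min at room temperature. Yttrium SPA beads stop reaction; IC50 from concentration–inhibition plots.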

[2] = biological target: T2, recombinant guanylate cyclase reporter cell line (Rattus norvegicus, UniProt P19686+P20595); assay: Action on recombinant guanylate cyclase reporter cell line; assay type: cell-based
T2 construct: expressed in transfected cells
T2 sequence (P20595 1-619): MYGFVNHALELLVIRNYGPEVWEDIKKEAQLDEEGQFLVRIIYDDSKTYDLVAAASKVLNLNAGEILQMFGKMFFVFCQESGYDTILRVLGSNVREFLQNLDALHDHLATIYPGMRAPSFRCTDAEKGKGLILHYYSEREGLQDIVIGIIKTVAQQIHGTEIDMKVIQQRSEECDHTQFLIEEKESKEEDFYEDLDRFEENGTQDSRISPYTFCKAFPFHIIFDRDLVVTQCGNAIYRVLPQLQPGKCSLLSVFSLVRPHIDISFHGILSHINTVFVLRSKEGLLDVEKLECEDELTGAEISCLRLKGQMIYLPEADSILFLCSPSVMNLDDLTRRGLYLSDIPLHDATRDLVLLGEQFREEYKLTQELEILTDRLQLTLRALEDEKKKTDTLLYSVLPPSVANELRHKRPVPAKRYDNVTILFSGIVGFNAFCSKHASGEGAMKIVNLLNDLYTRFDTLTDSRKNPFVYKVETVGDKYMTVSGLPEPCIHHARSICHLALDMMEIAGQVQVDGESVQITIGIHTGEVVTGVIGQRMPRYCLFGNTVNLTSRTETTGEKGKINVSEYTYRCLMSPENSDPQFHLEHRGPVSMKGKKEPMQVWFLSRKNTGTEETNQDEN
T2 sequence (P19686 1-690): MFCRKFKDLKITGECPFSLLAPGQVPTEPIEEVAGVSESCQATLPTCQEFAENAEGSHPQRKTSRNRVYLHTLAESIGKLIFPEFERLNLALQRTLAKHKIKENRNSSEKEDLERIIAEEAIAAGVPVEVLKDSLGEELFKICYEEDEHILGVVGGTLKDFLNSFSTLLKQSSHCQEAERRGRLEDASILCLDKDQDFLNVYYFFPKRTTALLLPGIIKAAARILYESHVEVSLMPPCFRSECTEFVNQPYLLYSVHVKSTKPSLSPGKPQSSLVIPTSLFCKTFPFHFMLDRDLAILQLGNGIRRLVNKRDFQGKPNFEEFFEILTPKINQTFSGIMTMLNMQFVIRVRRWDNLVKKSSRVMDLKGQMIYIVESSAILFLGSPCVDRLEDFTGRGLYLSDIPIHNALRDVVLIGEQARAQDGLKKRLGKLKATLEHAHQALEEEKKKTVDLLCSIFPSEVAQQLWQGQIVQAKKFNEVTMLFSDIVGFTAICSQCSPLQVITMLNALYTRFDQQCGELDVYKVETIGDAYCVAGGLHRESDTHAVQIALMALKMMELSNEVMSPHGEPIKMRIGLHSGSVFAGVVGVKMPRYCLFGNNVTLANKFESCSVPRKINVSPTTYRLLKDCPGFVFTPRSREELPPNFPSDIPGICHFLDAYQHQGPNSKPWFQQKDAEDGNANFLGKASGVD
Protocol: B-2. Action on Recombinant Guanylate Cyclase Reporter Cell Line
The cellular action of the compounds according to the invention is determined on a recombinant guanylate cyclase reporter cell line, as described in F. Wunder et al., Anal. Biochem. 339, 104-112 (2005).

[3] = tested on: aorta rings; assay: Vessel-relaxing action in vitro (aorta rings, phenylephrine contraction); conditions: Oryctolagus cuniculus, concentration required to reduce phenylephrine-induced contraction of rabbit aorta rings by 50%
Protocol: B-1. Vessel-relaxing Action in vitro
Rabbits are stunned with a blow on the back of the neck and exsanguinated. The aorta is removed, freed from adhering tissue, separated into rings with a width of 1.5 mm, and placed individually, with preloading, in 5-ml organ baths with carbogen-gassed Krebs-Henseleit solution at 37° C. with the following composition (mM in each case): sodium chloride: 119; potassium chloride: 4.8; calcium chloride dihydrate: 1; magnesium sulphate heptahydrate: 1.4; potassium dihydrogen phosphate: 1.2; sodium hydrogen carbonate: 25; glucose: 10. The contraction force is recorded with Statham UC2 cells, amplified and digitized via an A/D converter (DAS-1802 HC, Keithley Instruments Munich) and recorded in parallel on a continuous-line recorder. To produce contraction, phenylephrine is added to the bath cumulatively in increasing concentration. After several control cycles, the test substance is added in increasing dosage in each subsequent pass and the level of contraction is compared with the level of contraction reached in the immediately preceding pass. This is used for calculating the concentration that is required to reduce the level of the control value by 50% (IC50 value). The standard application volume is 5 μl, and the proportion of DMSO in the bath solution corresponds to 0.1%.

| pIC50 [1] | MEC (minimal effective concentration) [2] | pIC50 [3] | Compound |
| --- | --- | --- | --- |
| 7.06 | 0.1 μm | 6.21 | CC1(C)C(=O)Nc2nc(-c3nc(Cc4ccccc4F)c4ncccn34)nc(NCCC(F)(F)F)c21 [Example 39, 2-[8-(2-Fluorobenzyl)imidazo[1,5-a]pyrimidin-6-yl]-5,5-dimethyl-4-[(3,3,3-trifluoropropyl)amino]-5,7-dihydro-6H-pyrrolo[2,3-d]pyrimidin-6-one] |
| 6.14 | 1.0 μm | 5.04 | CC1(C)C(=O)Nc2nc(-c3nn(Cc4ccccc4F)c4ncccc34)nc(N3CCOC(C(F)(F)F)C3)c21 (stereo not drawn) [Example 32, 2-[1-(2-Fluorobenzyl)-1H-pyrazolo[3,4-b]pyridin-3-yl]-5,5-dimethyl-4-[2-(trifluoromethyl)morpholin-4-yl]-5,7-dihydro-6H-pyrrolo[2,3-d]pyrimidin-6-one] |
| 6.96 | 0.3 μm | 7.01 | CC(O)c1ccn(-c2nc(-c3nn(Cc4ccccc4F)c4ncccc34)nc3c2C(C)(C)C(=O)N3)n1 (stereo not drawn) [Example 28, 2-[1-(2-Fluorobenzyl)-1H-pyrazolo[3,4-b]pyridin-3-yl]-4-[3-(1-hydroxyethyl)-1H-pyrazol-1-yl]-5,5-dimethyl-5,7-dihydro-6H-pyrrolo[2,3-d]pyrimidin-6-one] |
| 6.96 | 0.1 μm | 6.70 | CC1(C)C(=O)Nc2nc(-c3nn(Cc4ccccc4F)c4ncc(F)cc34)nc(NCC(F)F)c21 [Example 7, 4-[(2,2-Difluoroethyl)amino]-2-[5-fluoro-1-(2-fluorobenzyl)-1H-pyrazolo[3,4-b]pyridin-3-yl]-5,5-dimethyl-5,7-dihydro-6H-pyrrolo[2,3-d]pyrimidin-6-one] |
| 8.22 | 0.1 μm | 7.21 | CC(C)(O)CNc1nc(-c2nn(Cc3ccccc3F)c3ncc(F)cc23)nc2c1C(C)(C)C(=O)N2 [Example 4, 2-[5-Fluoro-1-(2-fluorobenzyl)-1H-pyrazolo[3,4-b]pyridin-3-yl]-4-[(2-hydroxy-2-methylpropyl)amino]-5,5-dimethyl-5,7-dihydro-6H-pyrrolo[2,3-d]pyrimidin-6-one] |
| 7.30 | 0.1 μm | 6.20 | CC1(C)C(=O)Nc2nc(-c3nn(Cc4ncccc4F)c4ncc(F)cc34)nc(NCCC(F)(F)F)c21 [Example 12, 2-{5-Fluoro-1-[(3-fluoropyridin-2-yl)methyl]-1H-pyrazolo[3,4-b]pyridin-3-yl}-5,5-dimethyl-4-[(3,3,3-trifluoropropyl)amino]-5,7-dihydro-6H-pyrrolo[2,3-d]pyrimidin-6-one] |
| < 5.40 | 1.0 μm | 4.94 | CC1(C)C(=O)Nc2nc(-c3nn(Cc4ccccc4F)c4ncccc34)nc(-n3cc(C(F)(F)F)cn3)c21 [Example 29, 2-[1-(2-Fluorobenzyl)-1H-pyrazolo[3,4-b]pyridin-3-yl]-5,5-dimethyl-4-[4-(trifluoromethyl)-1H-pyrazol-1-yl]-5,7-dihydro-6H-pyrrolo[2,3-d]pyrimidin-6-one] |
| 7.10 | 0.1 μm | 5.30 | CC1(C)C(=O)Nc2nc(-c3nc(Cc4c(F)ccc(F)c4F)n4cc(Cl)ccc34)nc(NCCC(F)(F)F)c21 [Example 13, 2-[6-Chloro-3-(2,3,6-trifluorobenzyl)imidazo[1,5-a]pyridin-1-yl]-5,5-dimethyl-4-[(3,3,3-trifluoropropyl)amino]-5,7-dihydro-6H-pyrrolo[2,3-d]pyrimidin-6-one] |
| 6.60 | 0.3 μm | 5.79 | CC1(C)C(=O)Nc2nc(-c3nn(Cc4ccccc4F)c4ncccc34)nc(OCC(F)(F)F)c21 [Example 115, 2-[1-(2-Fluorobenzyl)-1H-pyrazolo[3,4-b]pyridin-3-yl]-5,5-dimethyl-4-(2,2,2-trifluoroethoxy)-5,7-dihydro-6H-pyrrolo[2,3-d]pyrimidin-6-one] |
| < 5.40 | 1.0 μm | < 5.00 | CC1(C)C(=O)Nc2nc(-c3nn(Cc4ccccc4F)c4ncccc34)nc(-n3ccc(C(F)(F)F)n3)c21 [Example 30, 2-[1-(2-Fluorobenzyl)-1H-pyrazolo[3,4-b]pyridin-3-yl]-5,5-dimethyl-4-[3-(trifluoromethyl)-1H-pyrazol-1-yl]-5,7-dihydro-6H-pyrrolo[2,3-d]pyrimidin-6-one] |
| 6.92 | 0.1 μm | 5.71 | CC1(C)C(=O)Nc2nc(-c3nn(Cc4ccccc4F)c4ncccc34)nc(OCC3CC3)c21 [Example 113, 4-(Cyclopropylmethoxy)-2-[1-(2-fluorobenzyl)-1H-pyrazolo[3,4-b]pyridin-3-yl]-5,5-dimethyl-5,7-dihydro-6H-pyrrolo[2,3-d]pyrimidin-6-one] |
| 8.10 | 0.3 μm | 7.27 | CC1(C)C(=O)Nc2nc(-c3nn(Cc4ccccc4F)c4ncc(F)cc34)nc(NCCO)c21 [Example 2, 2-[5-Fluoro-1-(2-fluorobenzyl)-1H-pyrazolo[3,4-b]pyridin-3-yl]-4-[(2-hydroxyethyl)amino]-5,5-dimethyl-5,7-dihydro-6H-pyrrolo[2,3-d]pyrimidin-6-one] |
| 6.26 | 1.0 μm | 5.21 | CC1(C)C(=O)Nc2nc(-n3nc(Cc4ccccc4F)c4cc(F)ccc43)nc(OCCC(F)(F)F)c21 [Example 34, 2-[5-Fluoro-3-(2-fluorobenzyl)-1H-indazol-1-yl]-5,5-dimethyl-4-(3,3,3-trifluoropropoxy)-5,7-dihydro-6H-pyrrolo[2,3-d]pyrimidin-6-one] |
| 6.55 | 0.3 μm | 5.89 | CC1(C)C(=O)Nc2nc(-c3nn(Cc4ccccc4F)c4c3CCC4)nc(NCC(F)(F)F)c21 [Example 19, 2-[1-(2-Fluorobenzyl)-1,4,5,6-tetrahydrocyclopenta[c]pyrazol-3-yl]-5,5-dimethyl-4-[(2,2,2-trifluoroethyl)amino]-5,7-dihydro-6H-pyrrolo[2,3-d]pyrimidin-6-one] |
| 6.01 | 0.3 μm | 6.32 | CC1(C)C(=O)Nc2nc(-c3nn(Cc4ccccc4F)c4ncccc34)nc(N3CC(N4CCCC4)C3)c21 [Example 105, 2-[1-(2-Fluorobenzyl)-1H-pyrazolo[3,4-b]pyridin-3-yl]-5,5-dimethyl-4-[3-(pyrrolidin-1-yl)azetidin-1-yl]-5,7-dihydro-6H-pyrrolo[2,3-d]pyrimidin-6-one] |
